Where a name gives a salt, the structure may show the parent alone. Read-outs that look alike come from different tables or passages of the source.
Columns and labels:
[1] = system: DLD-1 (human colon carcinoma cells); experiment: In vivo anti-tumor studies, subcutaneous DLD-1 tumors in athymic nu/nu mice; set-up: species or system athymic nu/nu female mice; conditions: Mus musculus, DLD-1, po, read-out: Average % Tumor Inhibition
Procedure: Tumor bearing animals are selected and randomized when the tumors are established. Animals are treated with vehicle (β-cyclodextrin for i.p. or corn oil for p.o.) only or with a compound of the present invention in vehicle four times a day (QID) for 7 days per week for 4 weeks. The percent inhibition of tumor growth relative to vehicle controls is determined by tumor measurements.

[2] = molecular target: T1, farnesyl protein transferase (FPT) (Rattus norvegicus, UniProt Q02293+Q04631); experiment: In vitro enzyme assay: inhibition of farnesyl protein transferase (FPT), [3H]farnesyl transfer to Ras-CVLS; format: biochemical
T1 construct: were partially purified from rat brain by ammonium sulfate fractionation; from tissue; host or cells: rat brain (ammonium sulfate fractionation, Q-Sepharose)
Procedure: 1. In vitro enzyme assays:
Inhibition of farnesyl protein transferase and geranylgeranyl protein transferase.
Human farnesyl protein transferase was also expressed in E. coli, using cDNA clones encoding both the a and b subunits. […] Human farnesyl protein transferase was partially-purified from the soluble protein fraction of E. coli as described above. […] Two forms of val^12 -Ha-Ras protein were prepared as substrates for these enzymes, differing in their carboxy terminal sequence. One form terminated in cysteine-valine-leucine-serine (Ras-CVLS) the other in cystein-valine-leucine-leucine (Ras-CVLL). Ras-CVLS is a substrate for the farnesyl protein transferase while Ras-CVLL is a substrate for geranylgeranyl protein transferase I. The cDNAs encoding these proteins were constructed so that the proteins contain an amino-terminal extension of 6 histidine residues. Both proteins were expressed in Escherichia coli and purified using metal chelate affinity chromatography. The radiolabelled isoprenyl pyrophosphate substrates, [^3 H]farnesyl pyrophosphate and [^3 H] geranylgeranyl pyrophosphate, were purchased from DuPont/New England Nuclear.
The reaction was allowed to proceed for 30 minutes at room temperature and then stopped with 0.5 ml of 4% sodium dodecyl sulfate (SDS) followed by 0.5 ml of cold 30% TCA. Samples were allowed to sit on ice for 45 minutes and precipitated Ras protein was then collected on GF/C filter paper mats using a Brandel cell harvester. […] Percent inhibition was calculated relative to the DMSO vehicle control.

[3] = system: T24-BAG4 human bladder carcinoma cells expressing an activated H-ras gene; experiment: Cell mat assay, T24-BAG4 tumor cells; format: cell-based; conditions: read-out: Tumor (T-24) IC50
Procedure: (§1) Compound-induced colony inhibition was assayed by addition of serial dilutions of compound directly to the growth medium 24 h after tumor cell planting, and incubating cells for an additional 14 d to allow colony formation. Assays were terminated by rinsing monolayers twice with phosphate-buffered saline (PBS), fixing the monolayers with a 1% glutaraldehyde solution in PBS, then visualizing tumor cells by staining with X-Gal (Price, J., et al., Lineage analysis in the vertebrate nervous system by retrovirus-mediated gene transfer, Proc. Natl. Acad. Sci.84, 156-160(1987)). […] Both IC50 values were obtained by determining the density of tumor cells and mat cells by visual inspection and enumeration of cells per colony and the number of colonies under the microscope.

[4] = system: DLD-1-BAG human colon carcinoma cells; experiment: Cell mat assay, DLD-1-BAG tumor cells; format: cell-based; conditions: read-out: Tumor (DLD-1) IC50
Procedure: as §1
(§2) Additional assays were carried out by following essentially the same procedure as described above, but with substitution of alternative indicator tumor cell lines in place of the T24-BAG cells. The assays were conducted using either DLD-1-BAG human colon carcinoma cells expressing as activated K-ras gene or SW620-BAG human colon carcinoma cells expressing an activated K-ras gene.

[5] = system: SW620-BAG human colon carcinoma cells expressing an activated K-ras gene; experiment: Cell mat assay, SW620-BAG tumor cells; format: cell-based
Procedure: as §1, §2

[6] = system: Normal human HEPM fibroblasts; experiment: Cell mat assay, normal cells (cell mat); format: cell-based; conditions: read-out: Normal IC50
Procedure: as §1

[7] = system: Ras-CVLS processing in COS cells; experiment: Cell-based COS cell assay: inhibition of Ras processing (Ras-CVLS); set-up: species or system monkey
Description: Transient expression of val^12 -Ha-Ras-CVLS and […] -Ha-Ras-CVLL in COS monkey kidney cells: Effect of farnesyl protein transferase inhibitors on Ras processing and on disordered cell growth induced by transforming Ras.
COS monkey kidney cells were transfected by electroporation with the plasmid pSV-SPORT (Gibco/BRL) containing a cDNA insert encoding either Ras-CVLS or Ras-CVLL, leading to transient overexpression of a Ras substrate for either farnesyl protein transferase or geranylgeranyl protein transferase I, respectively (see above).
Following electroporation, cells were plated into 6-well tissue culture dishes containing 1.5 ml of Dulbecco's-modified Eagle's media (GIBCO, Inc.) supplemented with 10% fetal calf serum and the appropriate farnesyl protein transferase inhibitors. After 24 hours, media was removed and fresh media containing the appropriate drugs was re-added.
48 hours after electroporation cells were examined under the microscope to monitor disordered cell growth induced by transforming Ras. Cells expressing transforming Ras become more rounded and refractile and overgrow the monolayer, reminiscent of the transformed phenotype. Cells were then photographed, washed twice with 1 ml of cold phosphate-buffered saline (PBS) and removed from the dish by scraping with a rubber policeman into 1 ml of a buffer containing 25 mM Tris, pH 8.0; 1 mM ethylenediamine tetraacetic acid; 1 mM phenylmethylsulfonyl fluoride; […]; and 0.1 mM pepstatin. Cells were lysed by homogenization and cell debris was removed by centrifugation at 2000× g for 10 min.
Cellular protein was precipitated by addition of ice-cold trichloroacetic acid and redissolved in […] of SDS-electrophoresis sample buffer. […] Proteins resolved on the gels were electroblotted onto nitrocellulose membranes for immunodetection.
After washing, membranes were incubated for one hour at room temperature with a 1:5000 dilution of secondary antibody, rabbit anti-rat lgG conjugated to horseradish peroxidase, in PBS containing 1% fetal calf serum. The presence of processed and unprocessed Ras-CVLS or Ras-CVLL was detected using a colorimetric peroxidase reagent (4-chloro-1-naphthol) as described by the manufacturer (Bio-Rad).

[8] = Homo sapiens, SW-620, 336 h, Mat assay, 14 d, read-out: Tumor (SW620) IC50
[9] = […], Experiment No. 1, 50 mg/kg p.o., QID, 7 days per week for 4 weeks
[10] = […], Experiment No. 2, 10 mg/kg p.o., QID, 7 days per week for 4 weeks
[11] = […], Experiment No. 3, 50 mg/kg p.o., QID, 7 days per week for 4 weeks
[12] = […], Experiment No. 4, 10 mg/kg p.o., QID, 7 days per week for 4 weeks
[13] = Primates, COS, read-out: Inhibition of Ras Processing IC50, Table 3, COS cells
[14] = Homo sapiens, 336 h, Mat assay, 14 d
[15] = Table 3, COS cells, read-out: Inhibition of Ras Processing IC50

In the case of O=C(Cc1cc[n+]([O-])cc1)N1CCN([C@H]2c3ccc(Cl)cc3CCc3cc(Br)cnc32)CC1 [Example 16B], the inhibition in vivo at 10 mg/kg ([1]; […]) is reported as 50% and the inhibition in vivo at 50 mg/kg ([1]; […]) is reported as 77%.

O=C(Cc1cc[n+]([O-])cc1)N1CCN([C@@H]2c3ccc(Cl)c(Br)c3CCc3cc(Br)cnc32)CC1 [Example 5A] showed an IC50 [2] of over 99 nM, an IC50 ([3]; Homo sapiens, 336 h) of 12500 nM and an IC50 ([4]; Homo sapiens, DLD-1, 336 h) of 12500 nM. It also gave an IC50 ([5]; Homo sapiens, SW-620, 336 h, read-out: Tumor (SW620) IC50, Mat assay, 14 d) of over 25000 nM and an IC50 ([6]; Homo sapiens, Fibroblast, 336 h) of over 25000 nM.

NC(=O)N1CCC(CC(=O)N2CCC(C3c4ccc(Cl)c(Br)c4CCc4cc(Br)cnc43)CC2)CC1 (single isomer, unassigned) [Example 13] showed an IC50 [5, 8] of over 1600 nM, an inhibition in vivo at 50 mg/kg [1, 9] of 61% and an inhibition in vivo at 10 mg/kg [1, 10] of 7%.

Work on NC(=O)N1CCC(CC(=O)N2CCC(C3c4ccc(Cl)cc4CCc4cc(Br)cnc43)CC2)CC1 (stereo not shown) [Example 4] yielded an inhibition in vivo at 50 mg/kg [1, 9] of 41%, an inhibition in vivo at 10 mg/kg [1, 10] of 18% and an inhibition in vivo at 50 mg/kg [1, 11] of 41%. It also gave an inhibition in vivo at 10 mg/kg [1, 12] of 14%.

In the case of NC(=O)N1CCC(CC(=O)N2CCN([C@H]3c4ccc(Cl)c(Br)c4CCc4cc(Br)cnc43)CC2)CC1 [Example 6], the inhibition in vivo at 50 mg/kg [1, 9] is reported as 61.2% and the inhibition in vivo at 10 mg/kg [1, 10] is reported as 35.4%.

O=C(Cc1cc[n+]([O-])cc1)N1CCN(C2c3ncc(Br)cc3CCc3cc(Cl)cc(Br)c32)CC1 (stereo not shown) [Example 11] gave an IC50 [7, 13] of under 250 nM.

In the case of NC(=O)N1CCC(CC(=O)N2CCN([C@@H]3c4ccc(Cl)cc4CCc4cc(Br)cnc43)CC2)CC1 [Example 17], the IC50 [5, 8] is reported as 25000 nM.

With O=C(Cc1cc[n+]([O-])cc1)N1CCC(=C2c3ncc(Br)cc3CCc3cc(Cl)cc(Br)c32)CC1 (racemic) [Example 7] the inhibition in vivo at 50 mg/kg [1, 9] was 76.5% and the inhibition in vivo at 10 mg/kg [1, 10] was 35.1%.

O=C(Cc1cc[n+]([O-])cc1)N1CCC(C2c3ccc(Cl)c(Br)c3CCc3cc(Br)cnc32)CC1 (single isomer, unassigned) [Example 14A · HCl salt] was tested, and the IC50 ([2]; Table 1, Ras-CVLS substrate, 30 minutes at room temperature, read-out: FPT IC50) was under 3.1 nM.

With O=C(Cc1cc[n+]([O-])cc1)N1CCC(=C2c3ncc(Br)cc3CCc3cc(Cl)cc(Br)c32)CC1 [Example 7B] the IC50 [3, 14] was under 1600 nM and the IC50 ([6]; Mat assay, 14 d, normal cells) was over 25000 nM.

In the case of O=C(Cc1cc[n+]([O-])cc1)N1CCC([C@H]2c3ncc(Br)cc3CCc3cc(Cl)cc(Br)c32)CC1 [Example 9], the inhibition in vivo at 50 mg/kg [1, 9] is reported as 68% and the inhibition in vivo at 10 mg/kg [1, 10] is reported as 19%.

In the case of NC(=O)N1CCC(CC(=O)N2CCC(C3c4ccc(Cl)c(Br)c4CCc4cc(Br)cnc43)CC2)CC1 (stereo not shown) [Example 13B], the IC50 [5, 8] is reported as over 3100 nM.

In the case of O=C(Cc1cc[n+]([O-])cc1)N1CCC(C2c3ccc(Cl)c(Br)c3CCc3cc(Br)cnc32)CC1 (single isomer, unassigned) [Example 14A], the inhibition in vivo at 50 mg/kg [1, 9] is reported as 59% and the inhibition in vivo at 10 mg/kg [1, 10] is reported as 48%.

NC(=O)N1CCC(CC(=O)N2CCC(=C3c4ncc(Br)cc4CCc4cc(Cl)cc(Br)c43)CC2)CC1 [Example 8B] was tested, and the IC50 [7, 15] was 280 nM, the IC50 ([3]; Mat assay, 14 d) was under 1600 nM and the IC50 ([4]; Mat assay, 14 d) was under 1600 nM. It also gave an IC50 ([5]; Mat assay, 14 d, read-out: Tumor (SW620) IC50) of 3100 nM, an IC50 ([6]; Mat assay, 14 d, normal cells) of over 25000 nM and an inhibition in vivo at 50 mg/kg [1, 9] of 62.5%. It also gave an inhibition in vivo at 10 mg/kg [1, 10] of 29.2%.

In the case of O=C(Cc1cc[n+]([O-])cc1)N1CCN([C@@H]2c3ncc(Br)cc3CCc3cc(Cl)cc(Br)c32)CC1 [Example 11B], the inhibition in vivo at 10 mg/kg ([1]; […]) is reported as 17% and the inhibition in vivo at 50 mg/kg ([1]; […]) is reported as 38.8%.

In the case of O=C(Cc1cc[n+]([O-])cc1)N1CCN([C@H]2c3ccc(Cl)c(Br)c3CCc3cc(Br)cnc32)CC1 [Example 5], the inhibition in vivo at 10 mg/kg ([1]; […]) is reported as 24% and the inhibition in vivo at 50 mg/kg ([1]; […]) is reported as 38%.

Compound O=C(Cc1cc[n+]([O-])cc1)N1CCC([C@@H]2c3ncc(Br)cc3CCc3cc(Cl)cc(Br)c32)CC1 [Example 9A] has an IC50 [2] of over 88 nM, an IC50 ([7]; Primates, COS, Table 3, COS cells, read-out: Inhibition of Ras Processing IC50) of 850 nM and an IC50 [3, 14] of under 1600 nM.

O=C(Cc1cc[n+]([O-])cc1)N1CCN([C@H]2c3ccc(Cl)c(Br)c3CCc3cc(Br)cnc32)CC1 [Example 5 · HCl salt] gave an IC50 [7, 13] of 10 nM.

Work on NC(=O)N1CCC(CC(=O)N2CCC(C3c4ccc(Cl)cc4C=Cc4cc(Br)cnc43)CC2)CC1 (stereo not shown) [Example 1] yielded an inhibition in vivo at 50 mg/kg [1, 9] of 38.2%, an inhibition in vivo at 10 mg/kg [1, 10] of 17.2% and an inhibition in vivo at 50 mg/kg [1, 11] of 35.4%. It also gave an inhibition in vivo at 10 mg/kg [1, 12] of 34%.

With NC(=O)N1CCC(CC(=O)N2CCC(=C3c4ncc(Br)cc4CCc4cc(Cl)cc(Br)c43)CC2)CC1 [Example 8A] the IC50 [7, 15] was over 1000 nM, the IC50 [3, 14] was under 1600 nM and the IC50 ([4]; Homo sapiens, DLD-1, 336 h, Mat assay, 14 d) was under 1600 nM. For the same compound, the IC50 [5, 8] was 3100 nM and the IC50 ([6]; Homo sapiens, Fibroblast, 336 h, Mat assay, 14 d, normal cells) was over 25000 nM.

In the case of NC(=O)N1CCC(CC(=O)N2CCN(C3c4ncc(Br)cc4CCc4cc(Cl)cc(Br)c43)CC2)CC1 (single isomer, unassigned) [Example 12B], the inhibition in vivo at 50 mg/kg [1, 9] is reported as 83% and the inhibition in vivo at 10 mg/kg [1, 10] is reported as 37.7%.

Compound O=C(Cc1cc[n+]([O-])cc1)N1CCN([C@H]2c3ncc(Br)cc3CCc3cc(Cl)cc(Br)c32)CC1 [Example 11A] has an inhibition in vivo at 10 mg/kg ([1]; […]) of 44.8% and an inhibition in vivo at 50 mg/kg ([1]; […]) of 63.8%.

O=C(Cc1cc[n+]([O-])cc1)N1CCC(=C2c3ncc(Br)cc3CCc3cc(Cl)cc(Br)c32)CC1 [Example 7A] showed an IC50 [7, 15] of over 1000 nM and an inhibition in vivo at 10 mg/kg ([1]; Experiment No. 2, 10 mg/kg p.o., QID, 7 days per week for 4 weeks) of 33.7%.
